Columns and labels:
Assay in all cases: Kinome scan
Type in all cases: binding
BRAF(V600E) = biological target: T1, BRAF(V600E) (Homo sapiens, UniProt P15056, V600E); conditions: 1000 nM
T1 construct: purchased Eurofins DiscoverX Corporation
Protocol: (§1) The kinome scan assays were carried out at Eurofins DiscoverX Corporation. For kinome scan profiling of compound 1g, it was screened at 1μM against 96 kinases (N = 2 independent experiments). The results for binding interactions are reported as % inhibition, where higher values indicate strong affinity; see the Supporting Information, Table S1 for full kinome profile.

CSF1R = biological target: T2, CSF1R (Homo sapiens, UniProt P07333); conditions: 1000 nM
T2 construct: purchased Eurofins DiscoverX Corporation
Protocol: as §1

BMPR2 = biological target: T3, BMPR2 (Homo sapiens, UniProt Q13873); conditions: 1000 nM
T3 construct: purchased Eurofins DiscoverX Corporation
T3 sequence (Q13873 27-1038): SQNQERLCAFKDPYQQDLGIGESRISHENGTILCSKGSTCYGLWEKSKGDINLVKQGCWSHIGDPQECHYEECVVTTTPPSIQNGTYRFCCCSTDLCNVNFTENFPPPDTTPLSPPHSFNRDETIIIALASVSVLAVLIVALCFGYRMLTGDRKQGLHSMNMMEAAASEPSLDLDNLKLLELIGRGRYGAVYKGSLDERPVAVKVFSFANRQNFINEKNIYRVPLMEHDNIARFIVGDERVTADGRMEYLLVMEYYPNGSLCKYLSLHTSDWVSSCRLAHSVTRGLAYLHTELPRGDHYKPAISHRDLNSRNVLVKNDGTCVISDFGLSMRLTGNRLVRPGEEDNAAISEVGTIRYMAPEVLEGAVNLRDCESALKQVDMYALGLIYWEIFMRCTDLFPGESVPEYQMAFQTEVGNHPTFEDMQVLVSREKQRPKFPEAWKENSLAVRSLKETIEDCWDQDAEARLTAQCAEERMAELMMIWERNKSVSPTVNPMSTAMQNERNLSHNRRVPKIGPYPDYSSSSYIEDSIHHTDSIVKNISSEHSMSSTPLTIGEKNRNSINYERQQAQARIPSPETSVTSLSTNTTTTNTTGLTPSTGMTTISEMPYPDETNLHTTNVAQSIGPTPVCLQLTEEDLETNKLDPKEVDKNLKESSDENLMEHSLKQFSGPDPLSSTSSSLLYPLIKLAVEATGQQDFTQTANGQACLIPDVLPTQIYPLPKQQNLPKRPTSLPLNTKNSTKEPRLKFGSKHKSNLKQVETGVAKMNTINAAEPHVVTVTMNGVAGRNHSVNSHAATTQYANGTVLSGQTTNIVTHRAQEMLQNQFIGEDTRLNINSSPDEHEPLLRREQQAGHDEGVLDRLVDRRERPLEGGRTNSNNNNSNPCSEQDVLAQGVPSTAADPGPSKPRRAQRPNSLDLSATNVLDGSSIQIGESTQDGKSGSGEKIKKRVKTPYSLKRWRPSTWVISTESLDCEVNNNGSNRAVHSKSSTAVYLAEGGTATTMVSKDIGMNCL
Protocol: as §1

CSNK1G2 = biological target: T4, CSNK1G2 (Homo sapiens, UniProt P78368); conditions: 1000 nM
T4 construct: purchased Eurofins DiscoverX Corporation
Protocol: as §1

ERBB2 = biological target: T5, ERBB2 (Homo sapiens, UniProt P04626); conditions: 1000 nM
T5 construct: purchased Eurofins DiscoverX Corporation
Protocol: as §1

DYRK1B = biological target: T6, DYRK1B (Homo sapiens, UniProt Q9Y463)
T6 construct: purchased Eurofins DiscoverX Corporation
T6 sequence (Q9Y463 whole entry): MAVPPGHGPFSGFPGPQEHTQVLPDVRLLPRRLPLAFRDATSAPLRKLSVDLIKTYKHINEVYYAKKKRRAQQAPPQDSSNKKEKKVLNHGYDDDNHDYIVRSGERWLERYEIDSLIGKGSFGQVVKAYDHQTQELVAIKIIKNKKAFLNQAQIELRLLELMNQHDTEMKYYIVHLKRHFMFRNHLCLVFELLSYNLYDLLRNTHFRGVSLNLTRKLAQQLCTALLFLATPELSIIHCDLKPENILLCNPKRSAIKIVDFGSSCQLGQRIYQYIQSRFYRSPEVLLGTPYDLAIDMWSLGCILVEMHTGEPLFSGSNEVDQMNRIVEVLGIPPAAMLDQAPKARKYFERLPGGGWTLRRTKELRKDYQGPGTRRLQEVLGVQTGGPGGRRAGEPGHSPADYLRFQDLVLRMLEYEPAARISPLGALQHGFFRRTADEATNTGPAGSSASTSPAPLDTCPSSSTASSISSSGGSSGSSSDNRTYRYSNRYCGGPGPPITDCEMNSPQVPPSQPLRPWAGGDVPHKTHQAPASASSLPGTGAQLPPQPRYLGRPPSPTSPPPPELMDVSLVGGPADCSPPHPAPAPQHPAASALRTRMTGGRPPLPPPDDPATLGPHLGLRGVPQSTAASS
Protocol: as §1

MLK1 = biological target: T7, MLK1 (Homo sapiens, UniProt P80192); conditions: 1000 nM
T7 construct: purchased Eurofins DiscoverX Corporation
Protocol: as §1

KIT(V559D,T670I) = biological target: T8, KIT(V559D,T670I) (Homo sapiens, UniProt P10721, T670I/V559D); conditions: 1000 nM
T8 construct: purchased Eurofins DiscoverX Corporation
Protocol: as §1

MAPKAPK2 = biological target: T9, MAPKAPK2 (Homo sapiens, UniProt P49137); conditions: 1000 nM
T9 construct: purchased Eurofins DiscoverX Corporation
Protocol: as §1

CDK9 = biological target: T10, CDK9 (Homo sapiens, UniProt P50750); conditions: 1000 nM
T10 construct: purchased Eurofins DiscoverX Corporation
Protocol: as §1

CHEK1 = biological target: T11, CHEK1 (Homo sapiens, UniProt O14757); conditions: 1000 nM
T11 construct: purchased Eurofins DiscoverX Corporation
Protocol: as §1

FAK = biological target: T12, FAK (Homo sapiens, UniProt Q05397); conditions: 1000 nM
T12 construct: purchased Eurofins DiscoverX Corporation
Protocol: as §1

SNARK = biological target: T13, SNARK (Homo sapiens, UniProt Q9H093); conditions: 1000 nM
T13 construct: purchased Eurofins DiscoverX Corporation
Protocol: as §1

BRAF = biological target: T14, BRAF (Homo sapiens, UniProt P15056); conditions: 1000 nM
T14 construct: purchased Eurofins DiscoverX Corporation
Protocol: as §1

PIM3 = biological target: T15, PIM3 (Homo sapiens, UniProt Q86V86); conditions: 1000 nM
T15 construct: purchased Eurofins DiscoverX Corporation
Protocol: as §1

CSNK1D = biological target: T16, CSNK1D (Homo sapiens, UniProt P48730)
T16 construct: purchased Eurofins DiscoverX Corporation
T16 sequence (P48730 whole entry): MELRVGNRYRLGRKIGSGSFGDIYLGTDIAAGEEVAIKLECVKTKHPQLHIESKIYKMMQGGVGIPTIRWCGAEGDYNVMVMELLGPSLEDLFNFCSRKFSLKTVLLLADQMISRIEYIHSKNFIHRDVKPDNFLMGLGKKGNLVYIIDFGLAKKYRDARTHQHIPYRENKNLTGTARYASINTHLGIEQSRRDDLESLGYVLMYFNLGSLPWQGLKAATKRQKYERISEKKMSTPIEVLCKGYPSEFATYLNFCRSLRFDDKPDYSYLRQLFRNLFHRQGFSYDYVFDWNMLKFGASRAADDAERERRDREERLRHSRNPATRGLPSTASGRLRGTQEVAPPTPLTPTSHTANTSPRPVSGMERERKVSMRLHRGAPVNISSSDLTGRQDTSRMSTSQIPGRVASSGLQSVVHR
Protocol: as §1

ERK1 = biological target: T17, ERK1 (Homo sapiens, UniProt P27361); conditions: 1000 nM
T17 construct: purchased Eurofins DiscoverX Corporation
Protocol: as §1

[1] = biological target: T18, JAK3(JH1domain-catalytic) (Homo sapiens, UniProt P52333); conditions: 1000 nM
T18 construct: JAK3(JH1domain-catalytic); purchased Eurofins DiscoverX Corporation
T18 sequence (P52333 822-1111 limits assumed): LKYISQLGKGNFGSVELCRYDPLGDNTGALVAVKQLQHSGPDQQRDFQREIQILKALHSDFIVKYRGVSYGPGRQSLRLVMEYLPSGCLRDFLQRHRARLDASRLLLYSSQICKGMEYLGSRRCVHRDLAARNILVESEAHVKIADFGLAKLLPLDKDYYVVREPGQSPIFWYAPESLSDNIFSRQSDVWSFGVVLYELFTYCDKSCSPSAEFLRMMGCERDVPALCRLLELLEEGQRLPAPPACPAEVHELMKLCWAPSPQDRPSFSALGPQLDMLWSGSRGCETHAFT
Protocol: as §1

MAP3K4 = biological target: T19, MAP3K4 (Homo sapiens, UniProt Q9Y6R4); conditions: 1000 nM
T19 construct: purchased Eurofins DiscoverX Corporation
Protocol: as §1

[2] = biological target: T20, TYK2(JH1domain-catalytic) (Homo sapiens, UniProt P29597); conditions: 1000 nM
T20 construct: TYK2(JH1domain-catalytic); purchased Eurofins DiscoverX Corporation
Protocol: as §1

LKB1 = biological target: T21, LKB1 (Homo sapiens, UniProt Q15831); conditions: 1000 nM
T21 construct: purchased Eurofins DiscoverX Corporation
Protocol: as §1

PIM2 = biological target: T22, PIM2 (Homo sapiens, UniProt Q9P1W9); conditions: 1000 nM
T22 construct: purchased Eurofins DiscoverX Corporation
Protocol: as §1

PDPK1 = biological target: T23, PDPK1 (Homo sapiens, UniProt O15530); conditions: 1000 nM
T23 construct: purchased Eurofins DiscoverX Corporation
Protocol: as §1

MKNK1 = biological target: T24, MKNK1 (Homo sapiens, UniProt Q9BUB5); conditions: 1000 nM
T24 construct: purchased Eurofins DiscoverX Corporation
Protocol: as §1

ALK = biological target: T25, ALK (Homo sapiens, UniProt Q9UM73); conditions: 1000 nM
T25 construct: purchased Eurofins DiscoverX Corporation
Protocol: as §1

TRKA (NTRK1) = biological target: T26, TRKA (NTRK1) (Homo sapiens, UniProt P04629)
T26 construct: purchased Eurofins DiscoverX Corporation
T26 sequence (P04629 33-796): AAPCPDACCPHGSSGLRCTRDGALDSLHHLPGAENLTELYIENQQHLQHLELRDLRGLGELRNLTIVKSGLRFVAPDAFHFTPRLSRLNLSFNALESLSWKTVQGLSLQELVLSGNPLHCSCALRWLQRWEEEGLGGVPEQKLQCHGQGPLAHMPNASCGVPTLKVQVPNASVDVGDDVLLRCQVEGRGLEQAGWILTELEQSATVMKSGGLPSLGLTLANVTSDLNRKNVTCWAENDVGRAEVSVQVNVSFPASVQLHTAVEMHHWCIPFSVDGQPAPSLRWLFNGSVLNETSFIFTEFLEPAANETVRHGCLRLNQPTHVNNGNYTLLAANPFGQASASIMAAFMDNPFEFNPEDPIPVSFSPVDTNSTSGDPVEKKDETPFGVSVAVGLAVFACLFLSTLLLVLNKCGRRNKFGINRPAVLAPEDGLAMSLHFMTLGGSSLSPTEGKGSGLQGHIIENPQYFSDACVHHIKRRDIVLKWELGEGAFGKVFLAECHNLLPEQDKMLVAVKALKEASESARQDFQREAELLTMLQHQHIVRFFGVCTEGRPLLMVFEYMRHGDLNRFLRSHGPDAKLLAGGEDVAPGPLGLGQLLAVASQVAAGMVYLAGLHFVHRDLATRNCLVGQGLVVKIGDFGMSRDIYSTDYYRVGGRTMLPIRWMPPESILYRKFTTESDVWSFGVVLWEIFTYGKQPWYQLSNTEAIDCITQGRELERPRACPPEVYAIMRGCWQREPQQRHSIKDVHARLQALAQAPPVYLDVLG
Protocol: as §1

KIT(D816V) = biological target: T27, KIT(D816V) (Homo sapiens, UniProt P10721, D816V); conditions: 1000 nM
T27 construct: purchased Eurofins DiscoverX Corporation
Protocol: as §1

ADCK3 = biological target: T28, ADCK3 (Homo sapiens, UniProt Q8NI60); conditions: 1000 nM
T28 construct: purchased Eurofins DiscoverX Corporation
Protocol: as §1

SRPK3 = biological target: T29, SRPK3 (Homo sapiens, UniProt Q9UPE1); conditions: 1000 nM
T29 construct: purchased Eurofins DiscoverX Corporation
Protocol: as §1

ABL1-phosphorylated = biological target: T30, ABL1-phosphorylated (Homo sapiens, UniProt P00519); conditions: 1000 nM
T30 construct: purchased Eurofins DiscoverX Corporation
Protocol: as §1

IGF1R = biological target: T31, IGF1R (Homo sapiens, UniProt P08069); conditions: 1000 nM
T31 construct: purchased Eurofins DiscoverX Corporation
Protocol: as §1

PKAC-alpha = biological target: T32, PKAC-alpha (Homo sapiens, UniProt P17612); conditions: 1000 nM
T32 construct: purchased Eurofins DiscoverX Corporation
Protocol: as §1

PAK2 = biological target: T33, PAK2 (Homo sapiens, UniProt Q13177); conditions: 1000 nM
T33 construct: purchased Eurofins DiscoverX Corporation
Protocol: as §1

GSK3B = biological target: T34, GSK3B (Homo sapiens, UniProt P49841); conditions: 1000 nM
T34 construct: purchased Eurofins DiscoverX Corporation
Protocol: as §1

PIM1 = biological target: T35, PIM1 (Homo sapiens, UniProt P11309); conditions: 1000 nM
T35 construct: purchased Eurofins DiscoverX Corporation
Protocol: as §1

JNK2 = biological target: T36, JNK2 (Homo sapiens, UniProt P45984); conditions: 1000 nM
T36 construct: purchased Eurofins DiscoverX Corporation
Protocol: as §1

MEK1 = biological target: T37, MEK1 (Homo sapiens, UniProt Q02750); conditions: 1000 nM
T37 construct: purchased Eurofins DiscoverX Corporation
Protocol: as §1

PDGFRB = biological target: T38, PDGFRB (Homo sapiens, UniProt P09619); conditions: 1000 nM
T38 construct: purchased Eurofins DiscoverX Corporation
Protocol: as §1

JNK1 = biological target: T39, JNK1 (Homo sapiens, UniProt P45983); conditions: 1000 nM
T39 construct: purchased Eurofins DiscoverX Corporation
T39 sequence (P45983 whole entry): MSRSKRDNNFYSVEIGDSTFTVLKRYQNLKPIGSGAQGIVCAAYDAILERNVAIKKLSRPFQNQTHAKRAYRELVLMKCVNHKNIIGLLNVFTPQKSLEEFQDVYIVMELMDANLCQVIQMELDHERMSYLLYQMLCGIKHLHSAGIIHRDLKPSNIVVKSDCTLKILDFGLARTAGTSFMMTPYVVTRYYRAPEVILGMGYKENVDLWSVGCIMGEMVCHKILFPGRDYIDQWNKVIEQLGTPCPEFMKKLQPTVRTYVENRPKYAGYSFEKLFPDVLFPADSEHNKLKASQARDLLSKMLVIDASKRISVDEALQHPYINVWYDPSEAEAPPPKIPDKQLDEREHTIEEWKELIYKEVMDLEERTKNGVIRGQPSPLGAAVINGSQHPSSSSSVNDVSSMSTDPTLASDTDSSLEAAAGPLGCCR
Protocol: as §1

PAK4 = biological target: T40, PAK4 (Homo sapiens, UniProt O96013); conditions: 1000 nM
T40 construct: purchased Eurofins DiscoverX Corporation
T40 sequence (O96013 whole entry): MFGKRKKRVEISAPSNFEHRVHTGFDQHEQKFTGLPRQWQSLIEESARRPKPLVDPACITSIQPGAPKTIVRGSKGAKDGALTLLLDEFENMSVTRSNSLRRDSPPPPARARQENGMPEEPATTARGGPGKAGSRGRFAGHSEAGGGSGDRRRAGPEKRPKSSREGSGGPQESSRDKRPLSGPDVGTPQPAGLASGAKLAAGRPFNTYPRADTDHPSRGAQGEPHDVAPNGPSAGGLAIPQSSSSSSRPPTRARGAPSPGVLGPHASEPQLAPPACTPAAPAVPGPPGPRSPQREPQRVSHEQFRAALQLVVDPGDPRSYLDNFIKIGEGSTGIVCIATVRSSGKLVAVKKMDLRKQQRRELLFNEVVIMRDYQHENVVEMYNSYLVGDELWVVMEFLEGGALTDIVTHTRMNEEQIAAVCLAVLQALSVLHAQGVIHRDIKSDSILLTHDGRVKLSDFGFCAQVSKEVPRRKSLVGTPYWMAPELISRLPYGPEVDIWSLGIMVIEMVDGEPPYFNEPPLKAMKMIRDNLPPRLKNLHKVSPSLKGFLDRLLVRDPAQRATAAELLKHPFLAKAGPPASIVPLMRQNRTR
Protocol: as §1

PLK3 = biological target: T41, PLK3 (Homo sapiens, UniProt Q9H4B4); conditions: 1000 nM
T41 construct: purchased Eurofins DiscoverX Corporation
T41 sequence (Q9H4B4 whole entry): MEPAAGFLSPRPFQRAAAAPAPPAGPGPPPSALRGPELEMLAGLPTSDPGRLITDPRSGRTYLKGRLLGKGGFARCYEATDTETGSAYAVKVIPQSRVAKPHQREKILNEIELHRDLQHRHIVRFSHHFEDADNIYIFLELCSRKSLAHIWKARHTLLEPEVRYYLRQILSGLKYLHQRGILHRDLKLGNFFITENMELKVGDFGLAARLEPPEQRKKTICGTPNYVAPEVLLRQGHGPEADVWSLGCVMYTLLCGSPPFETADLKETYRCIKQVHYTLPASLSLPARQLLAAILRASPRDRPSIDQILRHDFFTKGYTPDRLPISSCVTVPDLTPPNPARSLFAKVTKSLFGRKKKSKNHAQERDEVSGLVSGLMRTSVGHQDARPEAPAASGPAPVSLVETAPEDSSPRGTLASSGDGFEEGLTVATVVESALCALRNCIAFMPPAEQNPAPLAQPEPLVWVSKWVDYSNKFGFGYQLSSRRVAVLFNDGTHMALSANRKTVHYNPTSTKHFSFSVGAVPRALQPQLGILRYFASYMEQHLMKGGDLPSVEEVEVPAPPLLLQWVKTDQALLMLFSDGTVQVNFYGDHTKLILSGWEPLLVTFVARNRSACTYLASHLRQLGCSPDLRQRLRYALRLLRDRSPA
Protocol: as §1

- inhibition at 1 µM (BRAF(V600E)): 0%
- inhibition at 1 µM (CSF1R): 20%
- inhibition at 1 µM (BMPR2): 1%
- inhibition at 1 µM (CSNK1G2): 54%
- inhibition at 1 µM (ERBB2): 15%
- remaining binding at 1 µM (DYRK1B; 1 μM): < 20%
- inhibition at 1 µM (DYRK1B; 1000 nM, DYRK1B): 83%
- inhibition at 1 µM (MLK1): 7%
- inhibition at 1 µM (KIT(V559D,T670I)): 17%
- inhibition at 1 µM (MAPKAPK2): 0%
- inhibition at 1 µM (CDK9): 4%
- inhibition at 1 µM (CHEK1): 0%
- inhibition at 1 µM (FAK): 0%
- inhibition at 1 µM (SNARK): 0%
- inhibition at 1 µM (BRAF): 0%
- inhibition at 1 µM (PIM3): 25%
- remaining binding at 1 µM (CSNK1D; 1 μM, read-out: activity remaining, CK1δ (CSNK1D)): < 20%
- inhibition at 1 µM (CSNK1D; 1000 nM, CSNK1D): 91.3%
- inhibition at 1 µM (ERK1): 4%
- inhibition at 1 µM [1]: 0%
- inhibition at 1 µM (MAP3K4): 29%
- inhibition at 1 µM [2]: 70%
- inhibition at 1 µM (LKB1): 2%
- inhibition at 1 µM (PIM2): 3%
- inhibition at 1 µM (PDPK1): 11%
- inhibition at 1 µM (MKNK1): 0%
- inhibition at 1 µM (ALK): 31%
- remaining binding at 1 µM (TRKA (NTRK1); 1 μM): < 20%
- inhibition at 1 µM (TRKA (NTRK1); 1000 nM, TRKA (NTRK1)): 95.1%
- inhibition at 1 µM (KIT(D816V)): 22%
- inhibition at 1 µM (ADCK3): 8%
- inhibition at 1 µM (SRPK3): 6%
- inhibition at 1 µM (ABL1-phosphorylated): 35%
- inhibition at 1 µM (IGF1R): 7%
- inhibition at 1 µM (PKAC-alpha): 11%
- inhibition at 1 µM (PAK2): 44%
- inhibition at 1 µM (GSK3B): 0%
- inhibition at 1 µM (PIM1): 37%
- inhibition at 1 µM (JNK2): 0%
- inhibition at 1 µM (MEK1): 74%
- inhibition at 1 µM (PDGFRB): 8%
- inhibition at 1 µM (JNK1): 17%
- inhibition at 1 µM (PAK4): 50%
- inhibition at 1 µM (PLK3): 0%
SMILES: C#Cc1cn([C@@H]2S[C@H](CO)[C@@H](O)[C@H]2O)c2ncnc(N)c12 [Compound 1g, (2R,3R,4S,5R)-2-(4-Amino-5-ethynyl-7H-pyrrolo[2,3-d]pyrimidin-7-yl)-5-(hydroxymethyl)tetrahydrothiophene-3,4-diol]
